Measured values from publication PMC10706087, “The Subtype Selectivity in Search of Potent Hypotensive Agents among 5,5-Dimethylhydantoin Derived α1-Adrenoceptors Antagonists” (International Journal of Molecular Sciences, 2023).
Values joined by “and” are separate entries in the source; they are usually repeats but may differ in a detail not shown here. Equal entries are not always repeated. Structures can show the parent of a compound that is named as a salt. Where two headings read alike, the source gives them in different places.

Experiments:
[1] = target: α1-adrenoceptors (α1-ARs), rat cerebral cortex; conditions: cited from earlier work
[2] = test system: arterial blood pressure of normotensive Wistar rats; assay: Influence on blood pressure in normotensive anesthetized rats after i.v. administration; assay type: in vivo, rat; conditions: for Diastolic blood pressure / Systolic blood pressure: mean, n = 6; for lowest hypotensive (effective) dose / effect on systolic and diastolic blood pressure (in words): i.v., normotensive anesthetized rats
Outline: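 Normotensive rats were given thiopental (75 mg/kg) intraperitoneally as anesthesia. A heparinized saline-filled polyethylene tube was placed in the left carotid artery, and blood pressure was recorded with a PowerLab Apparatus. Compounds dissolved in ethyl alcohol 5% − kolliphor 5% − water 90% were injected intravenously at 1 mL/kg after 20 min of stabilization. Pressures were compared by two-way ANOVA with Sidak's post-hoc test.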

α1D- and α1A-AR subtype = test system: α1D- and α1A-AR subtype; parameters: method as in PMID 21753885; conditions: cited from earlier work
[3] = target: α1-adrenoceptors (α1-ARs), rat cerebral cortex; assay: Radioligand binding assay with [3H]-prazosin, affinity for α1-ARs; conditions: three independent experiments in duplicates, read-out: α1-adrenoceptor affinity Ki
[4] = target: T1, human adrenergic receptor α1A (Homo sapiens, UniProt P35348); assay: Intrinsic activity, aequorin luminescence functional assay at α1A-AR; assay type: cell-based; conditions: for α1A-AR Profile: agonist/antagonist profile; for IC50: cells expressing aequorin and human α1A, against phenylephrine, means of three independent experiments in duplicates; for Selectivity Ratio α1B/α1A: selectivity for α1A-AR (IC50(α1B-AR)/IC50(α1A-AR))
T1 sequence (P35348 1-466): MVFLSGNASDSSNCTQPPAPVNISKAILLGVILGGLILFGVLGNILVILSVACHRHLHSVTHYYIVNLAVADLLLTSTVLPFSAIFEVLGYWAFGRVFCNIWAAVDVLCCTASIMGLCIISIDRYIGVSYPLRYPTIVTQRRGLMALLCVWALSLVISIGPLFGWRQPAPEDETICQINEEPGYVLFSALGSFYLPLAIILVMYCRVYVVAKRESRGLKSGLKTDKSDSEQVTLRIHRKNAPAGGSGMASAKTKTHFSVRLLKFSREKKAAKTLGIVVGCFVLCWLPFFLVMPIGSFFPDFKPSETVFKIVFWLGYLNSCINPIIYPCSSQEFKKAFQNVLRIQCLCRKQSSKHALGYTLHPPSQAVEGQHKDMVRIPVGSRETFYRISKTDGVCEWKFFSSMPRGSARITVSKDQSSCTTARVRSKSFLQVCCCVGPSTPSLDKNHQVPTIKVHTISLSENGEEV

[5] = target: T2, human adrenergic receptor α1B (Homo sapiens, UniProt P35368); assay: Intrinsic activity, aequorin luminescence functional assay at α1B-AR; assay type: cell-based; conditions: for α1B-AR Profile: agonist/antagonist profile; for IC50: cells expressing aequorin and human α1B, against phenylephrine, means of three independent experiments in duplicates; for Selectivity Ratio α1A/α1B: selectivity for α1B-AR (IC50(α1A-AR)/IC50(α1B-AR))
T2 sequence (P35368 1-520): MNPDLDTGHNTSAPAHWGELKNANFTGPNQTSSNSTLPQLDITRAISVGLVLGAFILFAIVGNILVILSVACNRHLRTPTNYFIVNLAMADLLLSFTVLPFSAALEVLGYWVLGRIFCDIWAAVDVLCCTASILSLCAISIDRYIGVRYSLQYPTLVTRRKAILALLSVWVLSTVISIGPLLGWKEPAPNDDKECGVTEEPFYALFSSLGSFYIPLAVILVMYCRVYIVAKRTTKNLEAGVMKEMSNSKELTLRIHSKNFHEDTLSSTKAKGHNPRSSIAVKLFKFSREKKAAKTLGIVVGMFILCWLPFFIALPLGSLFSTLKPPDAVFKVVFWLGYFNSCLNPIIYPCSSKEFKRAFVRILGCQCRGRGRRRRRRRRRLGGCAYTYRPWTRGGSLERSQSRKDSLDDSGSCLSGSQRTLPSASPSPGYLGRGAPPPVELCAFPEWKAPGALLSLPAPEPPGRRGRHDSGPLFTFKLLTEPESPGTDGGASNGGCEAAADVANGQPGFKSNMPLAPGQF

[6] = published previously, read-out: α1-adrenoceptor affinity Ki
[7] = 1.0 mg/kg i.v., 0 min (initial, before administration)
[8] = 0.0625 mg/kg i.v., 0 min (initial, before administration)
[9] = 2.0 mg/kg i.v., 0 min (initial, before administration)

COc1cc2nc(N3CCN(C(=O)c4ccco4)CC3)nc(N)c2cc1OC [Prazosin, prazosin hydrochloride]
Ki [1, 6]: 0.24 nM

COc1ccccc1N1CCN(CCCNc2cc(=O)n(C)c(=O)n2C)CC1 [Urapidil, urapidil hydrochloride, reference compound]
Diastolic blood pressure [2, 7]: 93.0
Systolic blood pressure [2, 7]: 127.3
Diastolic blood pressure ([2]; 1.0 mg/kg i.v., 5 min): 77.5
Systolic blood pressure ([2]; 1.0 mg/kg i.v., 5 min): 111.3
Diastolic blood pressure ([2]; 1.0 mg/kg i.v., 10 min): 75.5
Systolic blood pressure ([2]; 1.0 mg/kg i.v., 10 min): 109.5
Diastolic blood pressure ([2]; 1.0 mg/kg i.v., 20 min): 76.0
Systolic blood pressure ([2]; 1.0 mg/kg i.v., 20 min): 110.2
Diastolic blood pressure ([2]; 1.0 mg/kg i.v., 30 min): 78.8
Systolic blood pressure ([2]; 1.0 mg/kg i.v., 30 min): 112.2
Diastolic blood pressure ([2]; 1.0 mg/kg i.v., 40 min): 79.2
Systolic blood pressure ([2]; 1.0 mg/kg i.v., 40 min): 112.7
Diastolic blood pressure ([2]; 1.0 mg/kg i.v., 50 min): 80.8
Systolic blood pressure ([2]; 1.0 mg/kg i.v., 50 min): 114.0
Diastolic blood pressure ([2]; 1.0 mg/kg i.v., 60 min): 81.2
Systolic blood pressure ([2]; 1.0 mg/kg i.v., 60 min): 115.0
lowest hypotensive (effective) dose [2]: 1.0 mg/kg
Ki [1, 6]: 128 nM

COc1ccccc1N1CCN(CCCCCN2C(=O)N(Cc3ccccc3)C(=O)C2(C)C)CC1 [PI]
Ki ([1]; lead structure, Figure 2, read-out: α1R Ki): 42.6 nM

COc1ccccc1N1CCN(CC(O)COc2cccc3ccccc23)CC1 (centres unmarked) [naftopidil]
higher affinity for α1D- than for α1A-AR subtype (α1D- and α1A-AR subtype): 3 fold

COc1ccccc1N1CCN(CCCCCCN2C(=O)N(Cc3ccc(Cl)cc3Cl)C(=O)C2(C)C)CC1.Cl [Compound 5, 3-(2,4-dichlorobenzyl)-1-(6-(4-(2-methoxyphenyl)piperazin-1-yl)hexyl)-5,5-dimethylimidazolidine-2,4-dione hydrochloride]
Ki [3]: 12.7 nM
α1A-AR Profile [4]: Antagonist
IC50 [4]: < 100 nM and 0.02 nM
Selectivity Ratio α1B/α1A [4]: 0.10
α1B-AR Profile [5]: Antagonist
IC50 [5]: < 100 nM and < 11 nM and 0.002 nM
Selectivity Ratio α1A/α1B [5]: 10.00
Diastolic blood pressure [2, 8]: 92.0
Systolic blood pressure [2, 8]: 128.8
Diastolic blood pressure ([2]; 0.0625 mg/kg i.v., 5 min): 87.7
Systolic blood pressure ([2]; 0.0625 mg/kg i.v., 5 min): 121.0
Diastolic blood pressure ([2]; 0.0625 mg/kg i.v., 10 min): 84.2
Systolic blood pressure ([2]; 0.0625 mg/kg i.v., 10 min): 116.8
Diastolic blood pressure ([2]; 0.0625 mg/kg i.v., 20 min): 81.7
Systolic blood pressure ([2]; 0.0625 mg/kg i.v., 20 min): 114.2
Diastolic blood pressure ([2]; 0.0625 mg/kg i.v., 30 min): 82.7
Systolic blood pressure ([2]; 0.0625 mg/kg i.v., 30 min): 113.3
Diastolic blood pressure ([2]; 0.0625 mg/kg i.v., 40 min): 81.7
Systolic blood pressure ([2]; 0.0625 mg/kg i.v., 40 min): 114.7
Diastolic blood pressure ([2]; 0.0625 mg/kg i.v., 50 min): 81.8
Systolic blood pressure ([2]; 0.0625 mg/kg i.v., 50 min): 116.8
Diastolic blood pressure ([2]; 0.0625 mg/kg i.v., 60 min): 83.3
Systolic blood pressure ([2]; 0.0625 mg/kg i.v., 60 min): 116.3
hypotensive dose lower than that of urapidil ([2]; 0.0625 vs. 1.0 mg/kg): 16 fold
effect on systolic and diastolic blood pressure (in words) [2]: statistically significant reduction
lowest hypotensive (effective) dose [2]: 0.0625 mg/kg
melting point: 205 to 207 °C

CC1(C)C(=O)N(Cc2ccc(Cl)cc2Cl)C(=O)N1CC(O)CN1CCN(c2ccccc2C#N)CC1.Cl (centres unmarked) [Compound 11, 3-(2,4-dichlorobenzyl)-1-(3-(4-(2-cyanophenyl)piperazin-1-yl)-2-hydroxypropyl)-5,5-dimethylimidazolidine-2,4-dione hydrochloride]
Ki [3]: 26 nM
α1A-AR Profile [4]: Antagonist
IC50 [4]: 162 nM
selectivity for α1A-AR over α1B-AR ([4]; from IC50 ratio): ~ 2 fold
Selectivity Ratio α1B/α1A [4]: 2.21
α1B-AR Profile [5]: Antagonist
IC50 [5]: 359 nM
Selectivity Ratio α1A/α1B [5]: 0.45
Diastolic blood pressure [2, 9]: 91.7
Systolic blood pressure [2, 9]: 128.5
Diastolic blood pressure ([2]; 2.0 mg/kg i.v., 5 min): 84.0
Systolic blood pressure ([2]; 2.0 mg/kg i.v., 5 min): 117.0
Diastolic blood pressure ([2]; 2.0 mg/kg i.v., 10 min): 80.7
Systolic blood pressure ([2]; 2.0 mg/kg i.v., 10 min): 112.8
Diastolic blood pressure ([2]; 2.0 mg/kg i.v., 20 min): 79.7
Systolic blood pressure ([2]; 2.0 mg/kg i.v., 20 min): 113.0
Diastolic blood pressure ([2]; 2.0 mg/kg i.v., 30 min): 79.8
Systolic blood pressure ([2]; 2.0 mg/kg i.v., 30 min): 112.5
Diastolic blood pressure ([2]; 2.0 mg/kg i.v., 40 min): 82.0
Systolic blood pressure ([2]; 2.0 mg/kg i.v., 40 min): 113.8
Diastolic blood pressure ([2]; 2.0 mg/kg i.v., 50 min): 82.3
Systolic blood pressure ([2]; 2.0 mg/kg i.v., 50 min): 116.3
Diastolic blood pressure ([2]; 2.0 mg/kg i.v., 60 min): 81.7
Systolic blood pressure ([2]; 2.0 mg/kg i.v., 60 min): 118.2
effect on systolic and diastolic blood pressure (in words) [2]: no significant changes
melting point: 147 to 149 °C
